Data published in patent US20240181022A1, “AMURINS LYSINS, AND LYSIN-ANTIMICROBIAL PEPTIDE (AMP) CONSTRUCTS ACTIVE AGAINST GRAM-NEGATIVE BACTERIA” (priority 2021, published 2024).
In brackets after ≈: the same amount, converted by molar mass. Several values for one entry are separate records, joined by “and”; a condition that tells them apart may be missing. Equal values may be shown once. Read-outs that look alike come from different tables or passages of the source. Marks after values point to notes of the source that are not given here.

Legend:
P. aeruginosa [1] = test: Checkerboard synergy assay (FICI) with antibiotics against P. aeruginosa; assay type: cell-based, Pseudomonas aeruginosa; conditions: for Antibiotic MIC (single agent): P. aeruginosa strain AR-769; for Antibiotic FIC / Antibiotic MIC (combo): P. aeruginosa strain AR-769, in combination with GN370; for Antibiotic MIC (combo): in µg/mL
Experimental: (§1) Any known method to assess MIC may be used.
(§2) Checkerboards are constructed by first preparing columns of e.g., a 96-well polypropylene microtiter plate, wherein each well has the same amount of antibiotic diluted 2-fold along the horizontal axis. […] Bacteria are added to the drug combinations at concentrations of 1×10^5 […] in CAA, for example, with or without human serum or pulmonary surfactant. […] Summation fractional inhibitory concentrations (ΣFICs) are calculated for each drug and the minimum ΣFIC value (ΣFICmin) is used to determine the effect of the Chp peptide/antibiotic combination.
The synergy of GN370 with meropenem was evaluated against 3 different strains of P. aeruginosa and three different strains of B. cenocepacia.
(§3) GN370 was further tested in combination with up to seven additional antibiotics (in addition to meropenem) against a variety of bacterial strains, including P. aeruginosa, A. baumannii, E. coli, E. cloacae, and K. pneumoniae. GN370 and the subject antibiotics were tested in a checkerboard assay format, and FICI values were determined, wherein ≤0.5 indicates synergy, >0.5-≤1 indicates additive; and >1 indicates indifferent.

A. baumannii = test: Checkerboard synergy assay (FICI) against A. baumannii; assay type: cell-based, Acinetobacter baumannii; conditions: A. baumannii ATCC BAA-747
Experimental: as §1, §2, §3

E. coli = test: Checkerboard synergy assay (FICI) against E. coli; assay type: cell-based, Escherichia coli; conditions: E. coli ATCC 25922
From the text: In some embodiments, the Chp peptides disclosed herein or active fragments thereof reduce the minimum inhibitory concentration (MIC) of an antibiotic in the presence and/or absence of human serum, pulmonary surfactant, and/or sputum, including human sputum and human sputum from a cystic fibrosis patient. Any known method to assess MIC may be used. In some embodiments, a checkerboard assay is used to determine the effect of a Chp peptide or active fragment thereof on antibiotic concentration. The checkerboard assay is based on a modification of the CLSI method for MIC determination by broth microdilution (See Clinical and Laboratory Standards Institute (CLSI), CLSI. 2015. Methods for Dilution Antimicrobial Susceptibility Tests for Bacteria That Grow Aerobically; Approved Standard-10th Edition. Clinical and Laboratory Standards Institute, Wayne, PA, which is herein incorporated by reference in its entirety and Ceri et al. 1999. J. Clin. Microbiol. 37: 1771-1776, which is also herein incorporated by reference in its entirety).
Checkerboards are constructed by first preparing columns of e.g., a 96-well polypropylene microtiter plate, wherein each well has the same amount of antibiotic diluted 2-fold along the horizontal axis. […] The Chp peptide or active fragment thereof and antibiotic dilutions are then combined, so that each column has a constant amount of antibiotic and doubling dilutions of Chp peptide, while each row has a constant amount of Chp peptide and doubling dilutions of antibiotic. Each well thus has a unique combination of Chp peptide and antibiotic. Bacteria are added to the drug combinations at concentrations of 1×10^5 GFU/ml in CAA, for example, with or without human serum or pulmonary surfactant. […] Summation fractional inhibitory concentrations (ΣFICs) are calculated for each drug and the minimum ΣFIC value (ΣFICmin) is used to determine the effect of the Chp peptide/antibiotic combination.
as §3

E. cloacae = test: Checkerboard synergy assay (FICI) against E. cloacae; assay type: cell-based, Enterobacter cloacae; conditions: E. cloacae ATCC 13047
Experimental: as §1, §2, §3

K. pneumoniae = test: Checkerboard synergy assay (FICI) against K. pneumoniae; assay type: cell-based, Klebsiella pneumoniae; conditions: K. pneumoniae HM-44
Experimental: as §1, §2, §3

P. aeruginosa AR-769 [2] = test: Repeat dose study of AM1 in the rabbit pulmonary infection model; assay type: in vivo
P. aeruginosa AR-769 [3] = test: GN370 in the rabbit pneumonia model; assay type: in vivo, New Zealand White rabbits; conditions: amikacin-alone or GN370-alone
P. aeruginosa [4] = test system: P. aeruginosa
P. aeruginosa [5] = test: Serial passage resistance development study, P. aeruginosa; assay type: cell-based, Pseudomonas aeruginosa; conditions: for MIC: Pseudomonas aeruginosa
P. aeruginosa [6] = conditions: 21 day serial passage, literature; cited from earlier work
S. maltophilia = test: Serial passage resistance development study, S. maltophilia; assay type: cell-based, Stenotrophomonas maltophilia; conditions: for MIC: Stenotrophomonas maltophilia
A. xylosoxidans = test: Serial passage resistance development study, A. xylosoxidans; assay type: cell-based, Achromobacter xylosoxidans; conditions: for change in MIC over serial passage: A. xylosoxidans; for MIC: Achromobacter xylosoxidans
[7] = test system: A. baumannii (ATCC BAA-747); test: microbe, parasite or virus in culture; assay type: cell-based, Acinetobacter baumannii
E. coli (ATCC 25922) = test: microbe, parasite or virus in culture; assay type: cell-based, Escherichia coli
[8] = test system: K. pneumoniae (1_1_5 HM-44); test: microbe, parasite or virus in culture; assay type: cell-based, Klebsiella pneumoniae
E. cloacae (ATCC 13047) = test: microbe, parasite or virus in culture; assay type: cell-based, Enterobacter cloacae
[9] = rabbit, amikacin 16 mg/kg i.v. every 8 hours (n = 17)
[10] = 672 h, read-out: MIC after 28-day serial passage
[11] = read-out: MIC at start of serial passage

## NCC[C@H](O)C(=O)N[C@@H]1C[C@H](N)[C@@H](O[C@H]2O[C@H](CN)[C@@H](O)[C@H](O)[C@H]2O)[C@H](O)[C@H]1O[C@H]1O[C@H](CO)[C@@H](O)[C@H](N)[C@H]1O [amikacin, reference compound]
P. aeruginosa [1]; P. aeruginosa ATCC 27853, checkerboard
  FICI of the antibiotic with GN370: 0.375
P. aeruginosa [1]
  Antibiotic MIC (single agent): 0.5 µg/mL
  Antibiotic FIC: 0.25
  Antibiotic MIC (combo): 0.125
A. baumannii
  FICI of the antibiotic with GN370: 0.625
E. coli
  FICI of the antibiotic with GN370: 0.25
E. cloacae
  FICI of the antibiotic with GN370: 0.75
K. pneumoniae
  FICI of the antibiotic with GN370: 0.375
P. aeruginosa AR-769 [2]; agent alone, intravenous, treatment from 6 hours post-infection
  mean bacterial density in lungs compared to the vehicle control group: moderate to no CFU/g reduction
P. aeruginosa AR-769 [2]; [9]
  Log CFU change v. pre-treatment (at 6 hours): 0.35* Log CFU
  Mean Bacterial Density in Lung ± SD: 7.84 ± 1.06 Log CFU/lung
  Survival: 85%
P. aeruginosa AR-769 [3]
  decrease of mean bacterial densities in lungs vs vehicle controls: 1.3 log10 CFU/g
P. aeruginosa [4]; XDR P. aeruginosa strain AR-769
  MIC: 8 µg/mL (≈ 13.7 µM)

## O=C(O)c1cn(C2CC2)c2cc(N3CCNCC3)c(F)cc2c1=O [ciprofloxacin, reference compound]
P. aeruginosa [1]
  Antibiotic MIC (single agent): 8 µg/mL
  Antibiotic FIC: 0.25
  Antibiotic MIC (combo): 2 and 1
P. aeruginosa [1]; listed as Ciprofloxacin
  Antibiotic FIC: 0.125
K. pneumoniae
  FICI of the antibiotic with GN370: 0.156
P. aeruginosa [5]; P. aeruginosa (PA453)
  change in MIC over 28-day serial passage: up to 512 fold
P. aeruginosa [5]; P. aeruginosa strain CFS 1292, Day 28
  change in MIC over serial passage: 256 fold
P. aeruginosa [5]
  MIC: 2 µg/mL (≈ 6.04 µM)
P. aeruginosa [5]; [10]
  MIC: 256 µg/mL (≈ 773 µM)
P. aeruginosa [5]; [11]
  MIC: 1 µg/mL (≈ 3.02 µM)
P. aeruginosa [6]
  increase of MIC over serial passage (D'Lima et al.): up to 32 fold

## C[C@H]1COc2c(N3CCN(C)CC3)c(F)cc3c(=O)c(C(=O)O)cn1c23 [levofloxacin, reference compound]
P. aeruginosa [5]
  MIC: 4 µg/mL (≈ 11.1 µM)
S. maltophilia; S. maltophilia, day 28, triplicate
  change in MIC over serial passage: up to 256 fold
S. maltophilia; [10]
  MIC: 64 µg/mL (≈ 177 µM)
S. maltophilia; [11]
  MIC: 0.25 µg/mL (≈ 0.692 µM)
A. xylosoxidans; day 28
  change in MIC over serial passage: 128 fold
A. xylosoxidans; day 28, another instance
  change in MIC over serial passage: 64 fold
A. xylosoxidans; 672 h, read-out: MIC after 28-day serial passage, A. xylosoxidans
  MIC: 32 µg/mL (≈ 88.6 µM)
A. xylosoxidans; 672 h, read-out: MIC after 28-day serial passage, A. xylosoxidans, another instance
  MIC: 128 µg/mL (≈ 354 µM)
A. xylosoxidans; read-out: MIC at start of serial passage, A. xylosoxidans
  MIC: 0.25 µg/mL (≈ 0.692 µM)
A. xylosoxidans; read-out: MIC at start of serial passage, A. xylosoxidans, another instance
  MIC: 2 µg/mL (≈ 5.53 µM)
[7]; A. baumannii (ATCC BAA-747)
  change in MIC over 28-day serial passage: 128 fold
[7]; Acinetobacter baumannii, ATCCBAA747
  MIC: 0.125 µg/mL (≈ 0.346 µM)
E. coli (ATCC 25922); E. coli (ATCC 25922)
  change in MIC over 28-day serial passage: 128 fold
E. coli (ATCC 25922); Escherichia coli, ATCC25922
  MIC: 0.0312 µg/mL (≈ 0.0865 µM)
[8]; K. pneumoniae (1_1_5 HM-44)
  change in MIC over 28-day serial passage: up to 512 fold
[8]; Klebsiella pneumoniae
  MIC: 0.0312 µg/mL (≈ 0.0865 µM)
E. cloacae (ATCC 13047); E. cloacae (ATCC 13047)
  change in MIC over 28-day serial passage: 256 fold
E. cloacae (ATCC 13047); Enterobacter cloacae, ATCC13047
  MIC: 0.0625 µg/mL (≈ 0.173 µM)
P. aeruginosa [4]; […], before serial passage
  MIC: 1 µg/mL (≈ 2.77 µM)
